Reference: patent US9522120B2, “Compositions and methods of making sustained release liquid formulations” (NEOS THERAPEUTICS, LP, priority 2005, dated 2016)

Tests used:
[1] = water and alcohol; cited from earlier work
[2] = Dissolution of phenylephrine sustained release coated beads; type: physicochemical; conditions: when combined with Gauifenesin DC
Protocol: Due to this effect the testing of the dissolution rate is achieved by first making a mock-up of the finished product. By doing so the suitability of the phenylephrine beads was determined more accurately. Direct specifications for dissolution were determined once data was collected to accurately predict this rate change.

| Compound | solubility [1] | dissolution rate [2] |
| --- | --- | --- |
| COc1ccccc1OCC(O)CO (centres unmarked) [Guaifenesin, 3(2-methoxyphenoxy)-1,2-propanediol] | soluble in water and alcohol | – |
| CNC[C@H](O)c1cccc(O)c1 [phenylephrine] | – | accelerated |
